Measurements from patent US10829520B2, “Beta-hairpin peptidomimetics” (POLYPHOR AG, priority 2015, dated 2020).
Read-outs that look alike come from different tables or passages of the source. Where a SMILES comes first, the peptide text is derived from it. Bridges are numbered along the chain shown (N, C = ends). Roman numbers before positions name the chains, in order. [ ]: non-standard residue; d: D form. Tle = CC(C)(C)[C@H](N)C(=O)O; dDab = NCC[C@@H](N)C(=O)O; hSer = N[C@@H](CCO)C(=O)O; Nle = CCCC[C@H](N)C(=O)O; Orn = NCCC[C@H](N)C(=O)O; Dab = NCC[C@H](N)C(=O)O; dAze = O=C(O)[C@H]1CCN1

Experiments:
Format in all cases: cell-based
[1] = tested on: human red blood cells (hRBC); test: Hemolysis of human red blood cells
Summary of the method: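 Each peptide was tested at a single concentration, 100 μg/mL. Erythrocytes (20% v/v) were incubated 1 h at 37° C. under shaking at 300 rpm, centrifuged, and released hemoglobin measured at OD540. Controls were PBS containing 0.001% acetic acid (0%) and Triton X-100 (100%).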

[2] = tested on: Pseudomonas aeruginosa ATCC 27853
Summary of the method: (§1)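 CLSI broth microdilution; MH-II (cation-adjusted) + 0.002% P-80; ~10^6 CFU/mL inoculum; peptide two-fold serial dilutions; 18-20 h, 35° C; MIC = no visible growth, μg/mL.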

Escherichia coli 926415 = tested on: Escherichia coli 926415
[3] = tested on: Acinetobacter baumannii DSM 30008
Summary of the method: as §1

[4] = tested on: Acinetobacter baumannii 872842
[5] = tested on: Klebsiella pneumoniae SSI #3010
Summary of the method: as §1

[6] = tested on: Klebsiella pneumoniae 968733
[7] = tested on: Escherichia coli ATCC 25922
Summary of the method: as §1

[8] = clinical isolate, Mueller-Hinton II broth, P-80 0.002% present
[9] = red cells of human, 1 h, 100 μg/mL

SMILES	Hemolysis at 100 μg/mL ([1]; 100 μg/mL, 20% hRBC, 1 h at 37° C.) [%]	Pseudomonas aeruginosa ATCC 27853 MIC ([2]; Mueller-Hinton II broth) [µg/mL]	Escherichia coli 926415 MIC (Escherichia coli 926415; [8]) [µg/mL]	Acinetobacter baumannii DSM 30008 MIC ([3]; Mueller-Hinton II broth) [µg/mL]	Acinetobacter baumannii 872842 MIC [4, 8] [µg/mL]	Klebsiella pneumoniae SSI #3010 MIC ([5]; Mueller-Hinton II broth) [µg/mL]	Klebsiella pneumoniae 968733 MIC [6, 8] [µg/mL]	Escherichia coli ATCC 25922 MIC ([7]; Mueller-Hinton II broth) [µg/mL]	Hemolysis at 100 μg/mL ([1]; red cells of human, 1 h, 100) [%]	Pseudomonas aeruginosa ATCC 27853 MIC ([2]; ATCC 27853) [µg/mL]	Escherichia coli 926415 MIC (Escherichia coli 926415; 926415) [µg/mL]	Acinetobacter baumannii DSM 30008 MIC ([3]; DSM 30008) [µg/mL]	Acinetobacter baumannii 872842 MIC [4]; 872842 [µg/mL]	Klebsiella pneumoniae SSI #3010 MIC ([5]; SSI #3010) [µg/mL]	Klebsiella pneumoniae 968733 MIC [6]; 968733 [µg/mL]	Escherichia coli ATCC 25922 MIC ([7]; ATCC 25922) [µg/mL]	Hemolysis at 100 μg/mL [1, 9] [%]
CC(C)C[C@@H]1NC(=O)[C@@H](CC(C)C)NC(=O)[C@H](CCN)NC(=O)[C@@H](NC(=O)[C@H](CCN)NC(=O)[C@@H](NC(=O)[C@H](CCN)NC(=O)CC[C@@H]2NC(=O)[C@@H]3CSSC[C@H](NC(=O)[C@H](Cc4c[nH]c5ccccc45)NC(=O)[C@H](CCN)NC(=O)[C@@H](CCN)NC2=O)C(=O)N[C@@H](C(C)(C)C)C(=O)N[C@@H]([C@@H](C)O)C(=O)N[C@@H](CO)C(=O)N2CCC[C@@H]2C(=O)N2CCC[C@H]2C(=O)N[C@@H](CC(C)C)C(=O)N[C@@H](CO)C(=O)N[C@@H](Cc2ccc(O)cc2)C(=O)N3)[C@@H](C)O)CCNC(=O)[C@H]([C@@H](C)O)NC(=O)[C@H](CCN)NC(=O)[C@H](CCN)NC1=O [Ex. 98] (I: cyclo(LSYCE[dDab][Dab]WC[Tle]TS[dP]P) / II: [Dab]T[Dab][Dab][Dab][dL]L[Dab][Dab]T; disulfide I:4-I:9; amide I:5-II:N; lactam II:4-II:C)	2	0.25	0.5	0.0625	0.25	0.125	0.5	0.125	–	–	–	–	–	–	–	–	–
CC(C)C[C@@H]1NC(=O)[C@H](CCN)NC(=O)[C@@H](CCN)NC(=O)[C@H](CCC(=O)N[C@@H](CCN)C(=O)N[C@H](C(=O)N[C@@H](CCN)C(=O)N[C@H]2CCNC(=O)[C@H]([C@@H](C)O)NC(=O)[C@H](CCN)NC(=O)[C@H](CCN)NC(=O)[C@H](CC(C)C)NC(=O)[C@@H](CC(C)C)NC(=O)[C@H](CCN)NC2=O)[C@@H](C)O)NC(=O)[C@H](CCN)NC(=O)[C@H](Cc2ccc(O)cc2)NC(=O)[C@H](CO)NC(=O)[C@H](CC(C)C)NC(=O)[C@@H]2CCCN2C(=O)[C@H]2CCCN2C(=O)[C@H](Cc2ccc(O)cc2)NC(=O)[C@H]([C@@H](C)O)NC(=O)[C@H](C(C)C)NC(=O)[C@H](CCN)NC1=O [Ex. 99] (I: cyclo(LSY[Dab]E[dDab][Dab]L[Dab]VTY[dP]P) / II: [Dab]T[Dab][Dab][Dab][dL]L[Dab][Dab]T; amide I:5-II:N; lactam II:4-II:C)	–	–	–	–	–	–	–	–	4	0.5	0.25	0.25	0.25	0.25	0.5	0.125	–
CC(C)C[C@@H]1NC(=O)[C@@H](CC(C)C)NC(=O)[C@H](CCN)NC(=O)[C@@H](NC(=O)[C@H](CCN)NC(=O)[C@@H](NC(=O)[C@H](CCN)NC(=O)CC[C@@H]2NC(=O)[C@H]([C@@H](C)O)NC(=O)[C@H](Cc3ccc(O)cc3)NC(=O)[C@H]([C@@H](C)O)NC(=O)[C@H](C(C)C)NC(=O)[C@@H]3CCCN3C(=O)[C@H]3CCN3C(=O)[C@H]([C@@H](C)O)NC(=O)[C@H](C)NC(=O)[C@H](C(C)(C)C)NC(=O)[C@H]([C@@H](C)O)NC(=O)[C@H](Cc3c[nH]c4ccccc34)NC(=O)[C@H]([C@@H](C)O)NC(=O)[C@@H]([C@H](C)O)NC2=O)[C@@H](C)O)CCNC(=O)[C@H]([C@@H](C)O)NC(=O)[C@H](CCN)NC(=O)[C@H](CCN)NC1=O [Ex. 100] (I: cyclo(AT[dAze]PVTYTE[dT]TWT[Tle]) / II: [Dab]T[Dab][Dab][Dab][dL]L[Dab][Dab]T; amide I:9-II:N; lactam II:4-II:C)	–	–	–	–	–	–	–	–	2	0.125	0.5	0.0625	0.25	0.125	2	0.0625	–
CC(C)C[C@@H]1NC(=O)[C@@H](CC(C)C)NC(=O)[C@H](CCN)NC(=O)[C@@H](NC(=O)[C@H](CCN)NC(=O)[C@@H](NC(=O)[C@H](CCN)NC(=O)CC[C@@H]2NC(=O)[C@H](CCO)NC(=O)[C@H](Cc3ccc(O)cc3)NC(=O)[C@H]([C@@H](C)O)NC(=O)[C@H](C(C)C)NC(=O)[C@@H]3CCCN3C(=O)[C@@H](C)NC(=O)[C@H](CO)NC(=O)[C@H](C)NC(=O)[C@H](C(C)(C)C)NC(=O)[C@H](CCO)NC(=O)[C@H](Cc3c[nH]c4ccccc34)NC(=O)[C@H](CCO)NC(=O)[C@@H](CCN)NC2=O)[C@@H](C)O)CCNC(=O)[C@H]([C@@H](C)O)NC(=O)[C@H](CCN)NC(=O)[C@H](CCN)NC1=O [Ex. 102] (I: cyclo(AS[dA]PVTY[hSer]E[dDab][hSer]W[hSer][Tle]) / II: [Dab]T[Dab][Dab][Dab][dL]L[Dab][Dab]T; amide I:9-II:N; lactam II:4-II:C)	–	–	–	–	–	–	–	–	<1	0.125	0.25	0.0625	0.5	0.125	0.5	0.0625	–
CC(C)C[C@@H]1NC(=O)[C@@H](CC(C)C)NC(=O)[C@H](CCN)NC(=O)[C@@H](NC(=O)[C@H](CCN)NC(=O)[C@@H](NC(=O)[C@H](CCN)NC(=O)CC[C@@H]2NC(=O)[C@H](CCN)NC(=O)[C@H](Cc3ccc(O)cc3)NC(=O)[C@H]([C@@H](C)O)NC(=O)[C@H](C(C)C)NC(=O)[C@@H]3CCCN3C(=O)[C@@H](C)NC(=O)[C@H](CO)NC(=O)[C@H](C)NC(=O)[C@H](C(C)(C)C)NC(=O)[C@H](CCO)NC(=O)[C@H](Cc3c[nH]c4ccccc34)NC(=O)[C@H](CCO)NC(=O)[C@@H](CCN)NC2=O)[C@@H](C)O)CCNC(=O)[C@H]([C@@H](C)O)NC(=O)[C@H](CCN)NC(=O)[C@H](CCN)NC1=O [Ex. 103] (I: cyclo([dDab][hSer]W[hSer][Tle]AS[dA]PVTY[Dab]E) / II: [Dab]T[Dab][Dab][Dab][dL]L[Dab][Dab]T; amide I:14-II:N; lactam II:4-II:C)	–	–	–	–	–	–	–	–	1	0.125	0.125	0.0625	0.25	0.0625	0.0625	0.625	–
CCCC[C@@H]1NC(=O)[C@@H]2CCCN2C(=O)[C@H]2CCCN2C(=O)[C@H](CO)NC(=O)[C@H](CO)NC(=O)[C@H](C(C)(C)C)NC(=O)[C@@H](NC(=O)[C@@H](N)Cc2c[nH]c3ccccc23)CSSC[C@@H](C(=O)N[C@@H](CCCN)C(=O)N[C@H](C)C(=O)N[C@H](CCN)C(=O)N[C@H]2CCNC(=O)[C@H]([C@@H](C)O)NC(=O)[C@H](CCN)NC(=O)[C@H](CCN)NC(=O)[C@H](CC(C)C)NC(=O)[C@@H](Cc3ccccc3)NC(=O)[C@H](CCN)NC2=O)NC(=O)[C@H](Cc2ccc(O)cc2)NC(=O)[C@H](CO)NC1=O [Ex. 104] (H-WC[Tle]SS[dP]P[Nle]SYC[Orn][dA][dDab][Dab][Dab][dF]L[Dab][Dab]T; disulfide 2-11; lactam 15-C)	–	–	–	–	–	–	–	–	–	1	0.25	0.5	0.25	0.5	1	0.25	3
CCCC[C@@H]1NC(=O)[C@@H]2CCCN2C(=O)[C@H]2CCCN2C(=O)[C@H](CO)NC(=O)[C@H](CO)NC(=O)[C@H](C(C)(C)C)NC(=O)[C@@H](NC(=O)[C@@H](N)Cc2c[nH]c3ccccc23)CSSC[C@@H](C(=O)N[C@@H](CCCN)C(=O)N[C@H](Cc2ccccc2)C(=O)N[C@H](CCN)C(=O)N[C@H]2CCNC(=O)[C@H]([C@@H](C)O)NC(=O)[C@H](CCN)NC(=O)[C@H](CCN)NC(=O)[C@H](CC(C)C)NC(=O)[C@@H](Cc3ccccc3)NC(=O)[C@H](CCN)NC2=O)NC(=O)[C@H](Cc2ccc(O)cc2)NC(=O)[C@H](CO)NC1=O [Ex. 105] (H-WC[Tle]SS[dP]P[Nle]SYC[Orn][dF][dDab][Dab][Dab][dF]L[Dab][Dab]T; disulfide 2-11; lactam 15-C)	–	–	–	–	–	–	–	–	–	1	0.125	0.5	0.25	0.5	1	0.25	1.7
